Experimental data from US20230310481A1 (priority 2020, published 2023).
pEC50: −log10 of the molar value.

Tests used:
Type in all cases: cell-based
[1] = Viability evaluation (MTS/PMS) of replicon RNA-transfected Huh7 cells, Example 2; conditions: human, highest tested concentration 50 µM
From the text: Obtained values are expressed as percent inhibition of untreated RNA-transfected control condition.

[2] = system: rat HEV replicon LAB350/luc; test: Antiviral activity against rat HEV replicon LAB350/luc in Huh7 cells (Gaussia luciferase); conditions: Huh-7, 72 h, 3 days, 50% reduction in Luc signal, two experiments
[3] = system: HEV Genotype 3 replicon Kernow-C1 p6/luc; test: Antiviral activity against HEV Genotype 3 replicon Kernow-C1 p6/luc in Huh7 cells (Gaussia luciferase); conditions: Huh-7, 96 h, read-out: relative EC50

Structure (SMILES) | CC50 [1] [µM] | pEC50 [2] | pEC50 [3]
CCOc1nc(N)nc2c1ncn2[C@@H]1O[C@](F)(COP(=O)(N[C@@H](C)C(=O)OC2CCCCC2)Oc2ccccc2)[C@@H](O)[C@@]1(C)O (stereo partly shown) [Compound 2] | > 50 |  | 
CCOc1nc(N)nc2c1ncn2[C@@H]1O[C@](F)(COP(=O)(OCOC(=O)OC(C)C)OCOC(=O)OC(C)C)[C@@H](O)[C@@]1(C)F [Compound 3] | > 50 |  | 
CCOc1nc(N)nc2c1ncn2[C@@H]1O[C@]2(F)CO[P@@](=O)(NCC(=O)OC(C)C)O[C@H]2[C@@]1(C)F [Compound 5] | > 50 | 7.34 | 7.66
CCOc1nc(N)nc2c1ncn2[C@@H]1O[C@](F)(COP(=O)(OCOC(=O)OC(C)C)OCOC(=O)OC(C)C)[C@@H](O)[C@@]1(C)O [Compound 6] | > 50 |  | 
CC(C)OC(=O)[C@H](C)N[P@](=O)(OC[C@@]1(F)O[C@@H](n2ccc(=O)[nH]c2=O)[C@](C)(O)[C@@H]1O)Oc1ccccc1 [Compound 7] | > 50 |  | 
CCOc1nc(N)nc2c1ncn2[C@@H]1O[C@]2(F)CO[P@@](=O)(N[C@H](C)C(=O)OC(C)C)O[C@H]2[C@@]1(C)F [Compound 8] | > 50 |  | 
CC(C)OC(=O)OCOP(=O)(OCOC(=O)OC(C)C)OC[C@@]1(F)O[C@@H](n2ccc(=O)[nH]c2=O)[C@](C)(O)[C@@H]1O [Compound 9] | > 50 |  | 
CC(C)OC(=O)OCOP(=O)(OCOC(=O)OC(C)C)OC[C@@]1(F)O[C@@H](n2ccc(=O)[nH]c2=O)[C@](C)(F)[C@@H]1O [Compound 11] | > 50 |  | 
